What was measured:
[1] = system: NCI-H226; test: Cytotoxicity against human NCI-H226 cells after 48 hrs by sulforhodamine B assay; format: functional; conditions: NCI-H226, 48 h
[2] = system: COLO 205; test: Cytotoxicity against human COLO205 cells after 48 hrs by sulforhodamine B assay; format: functional; conditions: COLO 205, 48 h
[3] = Cytotoxicity against human OVCAR8 cells after 48 hrs by sulforhodamine B assay; format: functional; conditions: OVCAR-8, 48 h
[4] = system: SF-295; test: Cytotoxicity against human SF295 cells after 48 hrs by sulforhodamine B assay; format: functional; conditions: SF-295, 48 h
[5] = system: NCI-H460; test: Cytotoxicity against human NCI-H460 cells after 48 hrs by sulforhodamine B assay; format: functional; conditions: NCI-H460, 48 h
[6] = system: BT-549; test: Cytotoxicity against human BT549 cells after 48 hrs by sulforhodamine B assay; format: functional; conditions: BT-549, 48 h
[7] = Cytotoxicity against human OVCAR3 cells after 48 hrs by sulforhodamine B assay; format: functional; conditions: OVCAR-3, 48 h
[8] = system: SK-OV-3; test: Cytotoxicity against human SKOV3 cells after 48 hrs by sulforhodamine B assay; format: functional; conditions: SK-OV-3, 48 h
[9] = Cytotoxicity against human OVCAR4 cells after 48 hrs by sulforhodamine B assay; format: functional; conditions: OVCAR-4, 48 h
[10] = Cytotoxicity against human OVCAR5 cells after 48 hrs by sulforhodamine B assay; format: functional; conditions: OVCAR-5, 48 h
[11] = system: KM12; test: Cytotoxicity against human KM12 cells after 48 hrs by sulforhodamine B assay; format: functional; conditions: KM12, 48 h
[12] = system: RPMI-8226; test: Cytotoxicity against human RPMI8226 cells after 48 hrs by sulforhodamine B assay; format: functional; conditions: RPMI-8226, 48 h
[13] = system: TK-10; test: Cytotoxicity against human TK10 cells after 48 hrs by sulforhodamine B assay; format: functional; conditions: TK-10, 48 h
[14] = system: SK-MEL-2; test: Cytotoxicity against human SK-MEL-2 cells after 48 hrs by sulforhodamine B assay; format: functional; conditions: SK-MEL-2, 48 h
[15] = system: HL-60(TB); test: Cytotoxicity against human HL-60(TB) cells after 48 hrs by sulforhodamine B assay; format: functional; conditions: HL-60, 48 h
[16] = target: Signal transducer and activator of transcription 1-alpha/beta (Homo sapiens) (UniProt P42224); test: Inhibition of SH2 domain of STAT1 (unknown origin) using FITC-GpYDKPHVL as substrate at 30 uM preincubated for 15 mins before substrate addition measured after 90 mins by alphascreen based assay
Signal transducer and activator of transcription 1-alpha/beta (Homo sapiens), sequence (P42224 whole entry, the tested form may be a part): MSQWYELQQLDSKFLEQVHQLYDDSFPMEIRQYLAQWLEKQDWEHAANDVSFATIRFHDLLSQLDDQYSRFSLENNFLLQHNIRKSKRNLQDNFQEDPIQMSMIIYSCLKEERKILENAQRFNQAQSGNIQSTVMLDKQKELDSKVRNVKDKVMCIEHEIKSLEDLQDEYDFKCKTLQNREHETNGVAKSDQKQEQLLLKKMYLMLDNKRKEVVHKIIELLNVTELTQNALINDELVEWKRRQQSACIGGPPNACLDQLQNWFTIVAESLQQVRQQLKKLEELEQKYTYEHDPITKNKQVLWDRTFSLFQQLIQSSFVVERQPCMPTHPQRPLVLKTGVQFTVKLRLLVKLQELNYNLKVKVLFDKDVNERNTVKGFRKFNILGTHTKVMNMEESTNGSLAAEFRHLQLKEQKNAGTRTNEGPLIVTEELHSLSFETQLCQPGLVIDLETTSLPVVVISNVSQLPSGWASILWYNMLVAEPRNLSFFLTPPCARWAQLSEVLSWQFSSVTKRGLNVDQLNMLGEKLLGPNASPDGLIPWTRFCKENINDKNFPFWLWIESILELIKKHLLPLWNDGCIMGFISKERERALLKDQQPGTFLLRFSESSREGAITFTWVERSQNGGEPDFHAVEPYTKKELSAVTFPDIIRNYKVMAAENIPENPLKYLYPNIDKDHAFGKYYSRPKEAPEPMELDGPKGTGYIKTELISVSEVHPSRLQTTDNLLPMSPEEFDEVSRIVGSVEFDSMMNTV

[17] = system: NCI-H522; test: Cytotoxicity against human NCI-H522 cells after 48 hrs by sulforhodamine B assay; format: functional; conditions: NCI-H522, 48 h
[18] = system: HCC 2998; test: Cytotoxicity against human HCC2998 cells after 48 hrs by sulforhodamine B assay; format: functional; conditions: HCC 2998, 48 h
[19] = target: Signal transducer and activator of transcription 1-alpha/beta (Homo sapiens, UniProt P42224); test: Inhibition of SH2 domain of STAT1 (unknown origin) using FITC-GpYDKPHVL as substrate preincubated for 15 mins before substrate addition measured after 90 mins by alphascreen based assay
Signal transducer and activator of transcription 1-alpha/beta, sequence (P42224 whole entry, the tested form may be a part): as above

[20] = system: MDA-MB-435; test: Cytotoxicity against human MDA-MB-435 cells after 48 hrs by sulforhodamine B assay; format: functional; conditions: MDA-MB-435, 48 h
[21] = system: ACHN; test: Cytotoxicity against human ACHN cells after 48 hrs by sulforhodamine B assay; format: functional
[22] = read-out: LC50 (the source's name)
[23] = read-out: pLC50 (the source's name) (converted)

Q: What does the source list for `O=C(Nc1nonc1-c1ccc(Cl)cc1)c1ccc(C(F)(F)F)cc1`?
A: GI50 ([1]; read-out: GI50): 2.48 µM; CC50 [1, 22]: > 100 µM; TGI ([1]; read-out: TGI): 7.85 µM; GI50 ([1]; read-out: pGI50 (converted)): 2.45 µM; CC50 [1, 23]: > 100 µM; TGI ([1]; read-out: pTGI (converted)): 7.76 µM; GI50 ([2]; read-out: GI50): 3.8 µM; CC50 [2, 22]: 41.3 µM; TGI ([2]; read-out: TGI): 12 µM; GI50 ([2]; read-out: pGI50 (converted)): 3.8 µM; CC50 [2, 23]: 41.7 µM; TGI ([2]; read-out: pTGI (converted)): 12 µM; GI50 ([3]; read-out: GI50): 2.87 µM; CC50 [3, 22]: > 100 µM; TGI ([3]; read-out: TGI): > 100 µM; GI50 ([3]; read-out: pGI50 (converted)): 2.88 µM; CC50 [3, 23]: > 100 µM; TGI ([3]; read-out: pTGI): > 100 µM; GI50 ([4]; read-out: GI50): 1.02 µM; CC50 [4, 22]: 43.4 µM; TGI ([4]; read-out: TGI): 3.72 µM; GI50 ([4]; read-out: pGI50 (converted)): 1.02 µM; CC50 [4, 23]: > 100 µM; TGI ([4]; read-out: pTGI (converted)): 3.72 µM; GI50 ([5]; read-out: GI50): 0.629 µM; CC50 [5, 22]: > 100 µM; GI50 ([5]; read-out: pGI50 (converted)): 0.631 µM; CC50 [5, 23]: > 100 µM; GI50 ([6]; read-out: GI50): 2.22 µM; CC50 [6, 22]: > 100 µM; TGI ([6]; read-out: TGI): 7.66 µM; GI50 ([6]; read-out: pGI50 (converted)): 2.24 µM; CC50 [6, 23]: > 100 µM; TGI ([6]; read-out: pTGI (converted)): 7.59 µM; GI50 ([7]; read-out: GI50): 2.18 µM; CC50 [7, 22]: > 100 µM; TGI ([7]; read-out: TGI): 7.9 µM; GI50 ([7]; read-out: pGI50 (converted)): 2.19 µM; CC50 [7, 23]: > 100 µM; TGI ([7]; read-out: pTGI (converted)): 7.94 µM; GI50 ([8]; read-out: GI50): 2.92 µM; CC50 [8, 22]: > 100 µM; TGI ([8]; read-out: TGI): 7.6 µM; GI50 ([8]; read-out: pGI50 (converted)): 2.88 µM; CC50 [8, 23]: > 100 µM; TGI ([8]; read-out: pTGI (converted)): 7.59 µM; GI50 ([9]; read-out: GI50): 1.83 µM; TGI ([9]; read-out: TGI): 4.21 µM; GI50 ([9]; read-out: pGI50 (converted)): 1.82 µM; TGI ([9]; read-out: pTGI (converted)): 4.17 µM; GI50 ([10]; read-out: GI50): 3.98 µM; LC50 ([10]; read-out: LC50): > 100 µM; TGI ([10]; read-out: TGI): 96.3 µM; GI50 ([10]; read-out: pGI50 (converted)): 3.98 µM; LC50 ([10]; read-out: pLC50 (converted)): > 100 µM; TGI ([10]; read-out: pTGI (converted)): 95.5 µM; GI50 ([11]; read-out: GI50): 3.06 µM; CC50 [11, 22]: > 100 µM; TGI ([11]; read-out: TGI): > 100 µM; GI50 ([11]; read-out: pGI50 (converted)): 3.09 µM; CC50 [11, 23]: > 100 µM; TGI ([11]; read-out: pTGI): > 100 µM; GI50 ([12]; read-out: GI50): 1.05 µM; CC50 [12, 22]: > 100 µM; TGI ([12]; read-out: TGI): 5.89 µM; GI50 ([12]; read-out: pGI50 (converted)): 1.05 µM; CC50 [12, 23]: > 100 µM; TGI ([12]; read-out: pTGI (converted)): 5.89 µM; GI50 ([13]; read-out: GI50): 6.75 µM; CC50 [13, 22]: > 100 µM; TGI ([13]; read-out: TGI): > 100 µM; GI50 ([13]; read-out: pGI50 (converted)): 6.76 µM; CC50 [13, 23]: > 100 µM; TGI ([13]; read-out: pTGI): > 100 µM; GI50 ([14]; read-out: GI50): 2.1 µM; LC50 (concentration killing 50% of cells) ([14]; read-out: LC50): > 100 µM; TGI ([14]; read-out: TGI): 5.11 µM; GI50 ([14]; read-out: pGI50 (converted)): 2.09 µM; LC50 (concentration killing 50% of cells) ([14]; read-out: pLC50 (converted)): > 100 µM; TGI ([14]; read-out: pTGI (converted)): 5.13 µM; GI50 ([15]; read-out: GI50): 0.546 µM; CC50 [15, 22]: > 100 µM; TGI ([15]; read-out: TGI): 2.85 µM; GI50 ([15]; read-out: pGI50 (converted)): 0.55 µM; CC50 [15, 23]: > 100 µM; TGI ([15]; read-out: pTGI (converted)): 2.88 µM; inhibition [16]: 94.6%; GI50 ([17]; read-out: GI50): 2.07 µM; CC50 [17, 22]: > 100 µM; TGI ([17]; read-out: TGI): 7.12 µM; GI50 ([17]; read-out: pGI50 (converted)): 2.09 µM; CC50 [17, 23]: > 100 µM; TGI ([17]; read-out: pTGI (converted)): 7.08 µM; GI50 ([18]; read-out: GI50): 3.63 µM; CC50 [18, 22]: > 100 µM; TGI ([18]; read-out: TGI): > 100 µM; GI50 ([18]; read-out: pGI50 (converted)): 3.63 µM; CC50 [18, 23]: > 100 µM; TGI ([18]; read-out: pTGI): > 100 µM; IC50 [19]: 7.2 µM; GI50 ([20]; read-out: GI50): 2.15 µM; LC50 ([20]; read-out: LC50): > 100 µM; TGI ([20]; read-out: TGI): > 100 µM; GI50 ([20]; read-out: pGI50 (converted)): 2.14 µM; LC50 ([20]; read-out: pLC50 (converted)): > 100 µM; TGI ([20]; read-out: pTGI): > 100 µM; GI50 ([21]; read-out: GI50): 3.1 µM; CC50 [21, 22]: > 100 µM; TGI ([21]; read-out: TGI): 8.74 µM; GI50 ([21]; read-out: pGI50 (converted)): 3.09 µM; CC50 [21, 23]: > 100 µM; TGI ([21]; read-out: pTGI (converted)): 8.71 µM

From ChEMBL document CHEMBL3217756, “Biological and computational evaluation of an oxadiazole derivative (MD77) as a new lead for direct STAT3 inhibitors” (Medchemcomm, 2012)
